Measurements: ChEMBL document CHEMBL5029144, “Positional Isomeric Effects on the Optical Properties, Multivalent Glycosidase Inhibition Effect, and Hypoglycemic Effect of Perylene Bisimide-deoxynojirimycin Conjugates” (J Med Chem, 2021)

What was measured:
Alpha-mannosidase [1] = molecular target: T1, Alpha-mannosidase (Canavalia ensiformis, UniProt C0HJB3); assay: Inhibition of jack bean alpha-mannosidase
T1 sequence (C0HJB3 whole entry): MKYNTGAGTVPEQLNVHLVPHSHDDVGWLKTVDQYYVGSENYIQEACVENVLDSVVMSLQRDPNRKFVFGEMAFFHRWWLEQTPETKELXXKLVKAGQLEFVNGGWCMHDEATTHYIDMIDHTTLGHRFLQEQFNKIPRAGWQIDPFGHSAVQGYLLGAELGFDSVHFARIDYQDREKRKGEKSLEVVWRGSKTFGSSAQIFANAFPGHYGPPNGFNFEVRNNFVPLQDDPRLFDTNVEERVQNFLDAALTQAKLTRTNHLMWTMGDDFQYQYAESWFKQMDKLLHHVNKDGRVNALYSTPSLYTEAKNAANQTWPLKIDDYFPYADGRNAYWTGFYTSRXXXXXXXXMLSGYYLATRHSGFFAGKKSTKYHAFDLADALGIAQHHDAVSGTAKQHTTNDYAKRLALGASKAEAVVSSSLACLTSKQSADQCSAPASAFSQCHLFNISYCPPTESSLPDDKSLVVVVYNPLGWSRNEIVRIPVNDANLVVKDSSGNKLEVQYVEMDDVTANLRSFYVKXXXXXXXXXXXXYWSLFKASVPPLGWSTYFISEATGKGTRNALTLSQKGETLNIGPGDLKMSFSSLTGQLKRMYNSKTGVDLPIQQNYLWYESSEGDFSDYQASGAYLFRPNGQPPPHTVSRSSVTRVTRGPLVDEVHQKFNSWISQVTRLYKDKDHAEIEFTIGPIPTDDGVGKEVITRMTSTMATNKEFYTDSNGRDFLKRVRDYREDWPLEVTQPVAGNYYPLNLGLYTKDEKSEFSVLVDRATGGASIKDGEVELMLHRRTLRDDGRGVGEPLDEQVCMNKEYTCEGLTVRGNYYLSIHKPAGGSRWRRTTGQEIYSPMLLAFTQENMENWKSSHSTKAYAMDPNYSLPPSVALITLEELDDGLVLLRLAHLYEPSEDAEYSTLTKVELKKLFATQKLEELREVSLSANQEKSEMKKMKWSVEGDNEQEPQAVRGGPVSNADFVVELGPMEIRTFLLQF

[2] = Inhibition of Helix pomatia beta-mannosidase
[3] = Inhibition of green coffee beans alpha-galactosidase; parameters: species or system Coffea arabica
[4] = Inhibition of Escherichia coli beta-galactosidase
[5] = Inhibition of Aspergillus niger alpha-glucosidase
[6] = Inhibition of almond beta-glucosidase; parameters: species or system Prunus dulcis
[7] = Toxicity in C57BL-6J mouse assessed as increase in body weight at 2 mg/kg, po measured upto 30 days; assay type: organism-based; conditions: in vivo, 720 h, time <=30 day
[8] = molecular target: T2, Alpha-mannosidase (Canavalia ensiformis) (UniProt C0HJB3); assay: Potency index, ratio of DNJ-1 Kd to test compound Kd for inhibition of Jack bean alpha-mannosidase
T2 sequence (whole entry): T1 sequence (C0HJB3 whole entry)

[9] = Toxicity in C57BL-6J mouse assessed as kidney pathological change at 2 mg/kg, po measured after 10 days by hematoxylin and eosin staining analysis; assay type: organism-based; conditions: in vivo, 240 h, time 10 day
[10] = Toxicity in C57BL-6J mouse assessed as increase in body weight at 2 mg/kg, po measured after 10 days; assay type: organism-based; conditions: in vivo, 240 h, time 10 day
[11] = Toxicity in C57BL-6J mouse assessed as lung pathological change at 2 mg/kg, po measured after 10 days by hematoxylin and eosin staining analysis; assay type: organism-based; conditions: in vivo, 240 h, time 10 day
[12] = Toxicity in C57BL-6J mouse assessed as spleen pathological change at 2 mg/kg, po measured after 10 days by hematoxylin and eosin staining analysis; assay type: organism-based; conditions: in vivo, 240 h, time 10 day
[13] = Toxicity in C57BL-6J mouse assessed as liver pathological change at 2 mg/kg, po measured after 10 days by hematoxylin and eosin staining analysis; assay type: organism-based; conditions: in vivo, 240 h, time 10 day
[14] = Toxicity in C57BL-6J mouse assessed as heart pathological change at 2 mg/kg, po measured after 10 days by hematoxylin and eosin staining analysis; assay type: organism-based; conditions: in vivo, 240 h, time 10 day
Aspergillus niger [15] = assay: Potency index, ratio of DNJ-1 Kd to test compound Kd for inhibition of Aspergillus niger alpha-glucosidase
[16] = Stability of the compound in pH 2 by UV-vis spectroscopy; assay type: physicochemical; conditions: buffer
[17] = Stability of the compound in pH 7 by UV-vis spectroscopy; assay type: physicochemical; conditions: buffer
[18] = molecular target: T2, Alpha-mannosidase (Canavalia ensiformis); assay: Potency index, ratio of miglitol Kd to test compound Kd for inhibition of Jack bean alpha-mannosidase
Coffea arabica = assay: Potency index, ratio of miglitol Kd to test compound Kd for inhibition of Green coffee beans alpha-galactosidase
Aspergillus niger [19] = assay: Potency index, ratio of miglitol Kd to test compound Kd for inhibition of Aspergillus niger alpha-glucosidase
Alpha-mannosidase [20] = molecular target: T1, Alpha-mannosidase; assay: Inhibition of Jack bean alpha-mannosidase by Lineweaver-Burk plot
[21] = Inhibition of Green coffee beans alpha-galactosidase by Lineweaver-Burk plot; parameters: species or system Coffea arabica
[22] = Inhibition of Aspergillus niger alpha-glucosidase by Lineweaver-Burk plot
Mus musculus [23] = assay: Hypoglycemic effect in maltose treated po dosed C57BL-6J mouse assessed as reduction in postprandial blood glucose level measured upto 180 mins; assay type: functional, organism-based; conditions: time min <=180
Mus musculus [24] = assay: Hypoglycemic effect in maltose treated mouse C57BL-6J assessed as reduction in postprandial blood glucose level at 0.5 mg/kg, po measured after 15 mins; assay type: functional; parameters: scale not given: the % may be the effect or the level left; conditions: 0.25 h
Mus musculus [25] = assay: Hypoglycemic effect in maltose treated mouse C57BL-6J assessed as reduction in postprandial blood glucose level at 1 mg/kg, po measured after 15 mins; assay type: functional; parameters: scale not given: the % may be the effect or the level left; conditions: 0.25 h
Mus musculus [26] = assay: Hypoglycemic effect in maltose treated mouse C57BL-6J assessed as reduction in postprandial blood glucose level at 2 mg/kg, po measured after 15 mins; assay type: functional; parameters: scale not given: the % may be the effect or the level left; conditions: 0.25 h
Mus musculus [27] = assay: Hypoglycemic effect in maltose treated mouse C57BL-6J assessed as reduction in postprandial blood glucose level at 0.5 mg/kg, po measured after 30 mins; assay type: functional; parameters: scale not given: the % may be the effect or the level left
Mus musculus [28] = assay: Hypoglycemic effect in maltose treated mouse C57BL-6J assessed as reduction in postprandial blood glucose level at 1 mg/kg, po measured after 30 mins; assay type: functional; parameters: scale not given: the % may be the effect or the level left; conditions: 0.5 h
Mus musculus [29] = assay: Hypoglycemic effect in maltose treated C57BL-6J mouse assessed as reduction in postprandial blood glucose level at 2 mg/kg, po measured after 30 mins; assay type: functional; parameters: scale not given: the % may be the effect or the level left; conditions: 0.5 h
[30] = (§1) Inhibition of mammalian Alpha-glucosidase (unknown origin) using PNPG as substrate pretreated for 20 mins followed by substrate addition measured after 26 mins
Homo sapiens = species on record: Homo sapiens; assay: as §1

Kd (Alpha-mannosidase [1])	Kd [2]	Kd [3]	Kd [5]	Kd [6]	Ratio [8]	Ratio (Aspergillus niger [15])	Stability [16]	Stability [17]	Kd ([3]; read-out: Kd)	SMILES	Kd [4]	Activity [7]	Activity [9]	Activity [10]	Activity [11]	Activity [12]	Activity [13]	Activity [14]	Activity (Mus musculus [25])	Activity (Mus musculus [26])	also measured
277 µM	Not Active	Not Active	61.6 µM	Not Active	–	–	–	–	–	OCc1cn(CCCN2C[C@H](O)[C@@H](O)[C@H](O)[C@H]2CO)nn1	Not Active	–	–	–	–	–	–	–	–	–	–
0.12 µM	Not Active	–	13.1 µM	Not Active	2310	4.7	Stable	Stable	1.43 µM	O=C1c2cc(Cl)c3c4c(Oc5ccc(OCc6cn(CCCN7C[C@H](O)[C@@H](O)[C@H](O)[C@H]7CO)nn6)cc5)cc5c6c(cc(Oc7ccc(OCc8cn(CCCN9C[C@H](O)[C@@H](O)[C@H](O)[C@H]9CO)nn8)cc7)c(c7c(Cl)cc(c2c37)C(=O)N1Cc1cn(CCCN2C[C@H](O)[C@@H](O)[C@H](O)[C@H]2CO)nn1)c64)C(=O)N(Cc1cn(CCCN2C[C@H](O)[C@@H](O)[C@H](O)[C@H]2CO)nn1)C5=O	Not Active	Toxic	Non-Toxic	Non-Toxic	Non-Toxic	Non-Toxic	Non-Toxic	Non-Toxic	29.2%	41.3%	Ratio [18]: 876; Ratio (Coffea arabica): 9.7; Ratio (Aspergillus niger [19]): 1.5; Ki (Alpha-mannosidase [20]): 0.12 µM; Ki [21]: 1.43 µM; Ki [22]: 13.1 µM; Activity (Mus musculus [23]): Dose-Dependent Effect; Activity (Mus musculus [24]): 22.4%; Activity (Mus musculus [27]): 15.2%; Activity (Mus musculus [28]): 20.8%; Activity (Mus musculus [29]): 37.4%; IC50 [30]: 11.6 µM; inhibition (Homo sapiens): Dose-Dependent Effect
0.017 µM	Not Active	–	14.7 µM	Not Active	16300	4.2	Stable	Stable	1.93 µM	O=C1c2cc(Cl)c3c4c(Cl)cc5c6c(cc(Oc7ccc(OCc8cn(CCCN9C[C@H](O)[C@@H](O)[C@H](O)[C@H]9CO)nn8)cc7)c(c7c(Oc8ccc(OCc9cn(CCCN%10C[C@H](O)[C@@H](O)[C@H](O)[C@H]%10CO)nn9)cc8)cc(c2c37)C(=O)N1Cc1cn(CCCN2C[C@H](O)[C@@H](O)[C@H](O)[C@H]2CO)nn1)c64)C(=O)N(Cc1cn(CCCN2C[C@H](O)[C@@H](O)[C@H](O)[C@H]2CO)nn1)C5=O	Not Active	Toxic	Non-Toxic	Non-Toxic	Non-Toxic	Non-Toxic	Non-Toxic	Non-Toxic	11.3%	22.2%	Ratio [18]: 6180; Ratio (Coffea arabica): 7.2; Ratio (Aspergillus niger [19]): 1.4; Ki (Alpha-mannosidase [20]): 0.017 µM; Ki [21]: 1.03 µM; Ki [22]: 14.7 µM; Activity (Mus musculus [23]): Dose-Dependent Effect; Activity (Mus musculus [24]): 4%; IC50 [30]: 14.4 µM; inhibition (Homo sapiens): Dose-Dependent Effect
–	Not Active	Not Active	20.6 µM	Not Active	–	–	–	–	–	OCCN1C[C@H](O)[C@@H](O)[C@H](O)[C@H]1CO [MIGLITOL]	Not Active	–	–	–	–	–	–	–	27.3%	40.4%	Activity (Mus musculus [29]): 36.6%
